Patent publication US9371286B2, “Pharmaceutical composition with enhanced efficacy for inhibiting angiogenesis” (INDUSTRY-ACADEMIC COOPERATION FOUNDATION, YONSEI UNIVERSITY, priority 2011, dated 2016)

How the values were obtained:
HIF-1α = HIF-1α stability analysis (western blot, hypoxia); format: cell-based; conditions: HepG2 cells pretreated 30 minutes, then 1% O2 for 4 hours; for IC50: HIF-1α protein level by western blot, read-out: IC50 values of respective compounds on HIF-1 α; for hypoxia-induced HIF-1α protein accumulation: western blot
Experimental: HepG2 cells were pretreated with indicated concentrations of the synthetic derivatives for 30 minutes and then exposed to 1% O2 for 4 hours. HIF-1α and tubulin protein levels were analyzed using western blot analysis.

UQCRB = target: T1, UQCRB (Homo sapiens, UniProt P14927); test: Surface plasmon resonance (BIAcore) competitive binding analysis; conditions: for binding efficiency of UQCRB to biotinylated terpestacin (BT) after co-incubation: competitor 25 μM incubated with purified UQCRB protein 25 μM, BIAcore 2000; for direct binding to UQCRB: concluded from SPR competition with biotinylated terpestacin
T1 sequence (P14927 1-111): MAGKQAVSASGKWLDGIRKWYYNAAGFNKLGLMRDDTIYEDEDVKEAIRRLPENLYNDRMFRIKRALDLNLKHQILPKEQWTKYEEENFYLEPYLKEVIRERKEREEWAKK
Experimental: SPR analysis was performed to analyze the binding of the compounds to UQCRB. Control biotin and biotinylated terpestacin (BT) were sequentially immobilized onto the surface of a streptavidin-coated sensor chip and the apparent binding affinities were calculated by subtraction of resonance values of UQCRB binding to control biotin from those of UQCRB binding to BT. For competitive binding analysis, the compounds were each incubated with the UQCRB protein, and then the complexes were injected into flow cells of the sensor chip.
In order to further investigate the binding of A1893 and A1938 to UQCRB, the present inventors performed SPR (BIAcore) analysis. Control biotin and biotinylated terpestacin were sequentially immobilized onto the surface of a streptavidin-coated sensor chip. Competitive binding molecules (A1893 and A1938, 25 μM) were incubated with the purified UQCRB protein (25 μM) in the buffer (10 mM HEPES, 150 mM NaCl, 3 mM EDTA (pH 7.4)), and then UQCRB-competitive binding molecule complexes were injected onto the sensor chip at a flow rate of 30 μl/min. The surface of the sensor chip was regenerated by the injection of 5 μl of the regeneration buffer (50 mM NaOH). Molecular interaction analysis was performed using the BIAcore 2000 system (BIAcore AB), and the apparent binding affinities were calculated by the subtraction of resonance values of UQCRB binding to control biotin from those of UQCRB binding to biotinylated terpestacin. For competitive binding analysis, terpestacin and the compounds of the present invention were each incubated with the UQCRB protein, and then the complexes were injected into flow cells of the sensor chip.

HUVECs [1] = test: Invasiveness analysis (Transwell, VEGF-induced); format: cell-based, human; conditions: VEGF 30 ng/ml, 2.5 μM and 5 μM, 18 hours
Experimental: (§1) Serum-starved HUVECs were treated with VEGF (30 ng/mL) with or without A1893 or A1938 and then the in vitro angiogenesis analysis was performed.
Serum-starved human umbilical vein endothelial cells (HUVECs) were treated with VEGF with or without A1893 or A1938, and then the in vitro angiogenesis analysis was performed. The invasiveness of HUVECs was investigated using the Transwell chamber system with 8.0-μm pore-sized polycarbonate filter (Corning Costar). First, a lower portion of the filter was coated with 10 μl gelatin (10 mg/ml) for 1 hour, and an upper portion of the filter was coated with 10 μl Matrigel (3 mg/ml) for 2 hours. Then, 600 μl of the EBM-2 medium was put into the Transwell, and then, VEGF (30 ng/ml) and the compound of the present invention DPCN (2.5 μM and 5 μM) were added thereto. The coated filter was placed on the Transwell, and HUVECs (1×10^5 cells/well) were inoculated on the upper portion of the filter, following by incubation for 18 hours. After that, the cells were fixed with 70% methanol, and then stained with hematoxylin/eosin. Then, the total number of invaded cells was measured using an optical microscope at 100× magnification.

HUVECs [2] = test: Tube formation analysis on Matrigel; format: cell-based, human; conditions: VEGF 30 ng/ml, 2.5 μM and 5 μM, 8 hours
Experimental: as §1
Tube formation analysis was performed using HUVECs growing on Matrigel (Collaborative Biomedical Products). The 48-well plate was coated with 150 μl Matrigel, followed by polymerization at 37 for 2 hours. Then, human umbilical vein endothelial cells (HUVECs, 1×10^5 cells/well) were inoculated on Matrigel, and then VEGF (30 ng/ml) and the compound of the present invention DPCN (2.5 μM and 5 μM) were added thereto. The morphological change of cells was observed while the cells were incubated at room temperature for 8 hours. Tube formation was quantified by measuring the number of connected cells in randomly selected fields and dividing the measured number by the total number of cells in the same field.

HepG2 cells = test: Mitochondrial ROS generation analysis (DCF fluorescence); format: cell-based; conditions: HepG2 cells pretreated 30 minutes, then 1% O2 for 10 minutes
Experimental: Intracellular ROS levels were determined by the DCF fluorescence. HepG2 cells were pretreated with the compounds for 30 minutes, and then exposed to 1% O2 for 10 minutes. A1893 and A1938 suppressed hypoxia-induced mitochondrial ROS generation, which confirmed that A1893 and A1938 modulate the O2 sensing function of UQCRB.
The increase in ROS generation due to complex III during hypoxia triggers HIF-1α stabilization, and consequently mediates the expression of its target genes such as VEGF. UQCRB, which is an important component in mitochondrial complex III, acts as an O2 sensor and mediates hypoxia-induced tumor angiogenesis. In order to determine whether anti-angiogenic activity of A1893 and A1938 is associated with the modulation of the O2 sensing function of UQCRB, the present inventors investigated the mitochondrial ROS-mediated hypoxic signal transmission procedure of A1893 and A1938. HepG2 liver cancer cells were pretreated with A1893 and A1938 for 30 minutes, and then exposed to 1% O2 for 10 minutes. Intracellular ROS levels were determined by the DCF fluorescence. A1893 and A1938 suppressed the hypoxia-induced mitochondrial ROS generation in HepG2 cells in a dose-dependent manner (FIG. 5).

HUVECs [3] = test: Viability of endothelial cells; format: cell-based, human
[4] = stated with the invasion analysis
[5] = stated with the tube formation analysis

CCc1ccc(S(=O)(=O)Nc2cccc3ccc(O)cc23)cc1 [A1891, 4-ethyl-N-(7-hydroxy-naphthalen-1-yl)-benzene-sulfonamide]
IC50 (HIF-1α): 10 µM

CC(C)(C)c1ccc(S(=O)(=O)Nc2ccc(O)cc2)cc1 [A1893, 4-tert-butyl-N-(4-hydroxy-phenyl)-benzene-sulfonamide]
IC50 (HIF-1α): 5 µM
hypoxia-induced HIF-1α protein accumulation (HIF-1α): greatly reduced
binding efficiency of UQCRB to biotinylated terpestacin (BT) after co-incubation (UQCRB): significantly decreased
direct binding to UQCRB (UQCRB): directly bind to UQCRB
VEGF-induced invasion of HUVECs (HUVECs [1]): inhibited VEGF-induced invasion
tube formation of HUVECs (HUVECs [2]): inhibited the tube formation
hypoxia-induced mitochondrial ROS generation (HepG2 cells): suppressed
viability of endothelial cells (HUVECs [3]; [4]): without affecting viability
viability of endothelial cells (HUVECs [3]; [5]): without affecting viability

O=S(=O)(Nc1ccc(O)cc1)c1ccc(-c2ccccc2)cc1 [A1938, biphenyl-4-sulfonic acid (4-hydroxy-phenyl)-amide]
IC50 (HIF-1α): 5 µM
hypoxia-induced HIF-1α protein accumulation (HIF-1α): greatly reduced
binding efficiency of UQCRB to biotinylated terpestacin (BT) after co-incubation (UQCRB): significantly decreased
direct binding to UQCRB (UQCRB): directly bind to UQCRB
VEGF-induced invasion of HUVECs (HUVECs [1]): inhibited VEGF-induced invasion
tube formation of HUVECs (HUVECs [2]): inhibited the tube formation
hypoxia-induced mitochondrial ROS generation (HepG2 cells): suppressed
viability of endothelial cells (HUVECs [3]; [4]): without affecting viability
viability of endothelial cells (HUVECs [3]; [5]): without affecting viability

CC(C)(C)c1ccc(S(=O)(=O)Nc2ccc(O)cc2Cl)cc1 [A2000, 4-tert-butyl-N-(2-chloro-4-hydroxy-phenyl)-benzene-sulfonamide]
IC50 (HIF-1α): 10 µM

O=S(=O)(Nc1ccc(O)cc1Cl)c1ccc(-c2ccccc2)cc1 [A2001, biphenyl-4-sulfonic acid (2-chloro-4-hydroxy-phenyl)-amide]
IC50 (HIF-1α): 5 µM

CC(C)(C)c1ccc(S(=O)(=O)Nc2ccc(O)c(Cl)c2)cc1 [A2003, 4-tert-butyl-N-(3-chloro-4-hydroxy-phenyl)-benznene-sulfonamide]
IC50 (HIF-1α): 10 µM

CC(C)(C)c1ccc(S(=O)(=O)Nc2cc(Cl)c(O)c(Cl)c2)cc1 [A2006, 4-tert-butyl-N-(3,5-dichloro-4-hydroxy-phenyl)-benzene-sulfonamide]
IC50 (HIF-1α): 10 µM

CC(C)(C)c1ccc(S(=O)(=O)Nc2ccc(O)cc2F)cc1 [A2007, 4-tert-butyl-N-(2-fluoro-4-hydroxy-phenyl)-benzene-sulfonamide]
IC50 (HIF-1α): 10 µM

O=S(=O)(Nc1ccc(O)cc1F)c1ccc(-c2ccccc2)cc1 [A2008, biphenyl-4-sulfonic acid (2-fluoro-4-hydroxy-phenyl)-amide]
IC50 (HIF-1α): 5 µM

CC(C)(C)c1ccc(S(=O)(=O)Nc2ccc(O)c(F)c2)cc1 [A2010, 4-tert-butyl-N-(3-fluoro-4-hydroxy-phenyl)-benzene-sulfonamide]
IC50 (HIF-1α): 10 µM

O=S(=O)(Nc1cccc(O)c1)c1ccc(-c2ccccc2)cc1 [A2033, biphenyl-4-sulfonic acid (3-hydroxy-phenyl)-amide]
IC50 (HIF-1α): 5 µM

CC(C)(C)c1ccc(S(=O)(=O)Nc2ccc(O)cc2[N+](=O)[O-])cc1 [A2037, 4-tert-butyl-N-(2-nitro-4-hydroxy-phenyl)-benzene-sulfonamide]
IC50 (HIF-1α): 10 µM

O=[N+]([O-])c1cc(O)ccc1NS(=O)(=O)c1ccc(-c2ccccc2)cc1 [A2038, biphenyl-4-sulfonic acid (2-nitro-4-hydroxy-phenyl)-benzene-sulfonamide]
IC50 (HIF-1α): 5 µM

Cc1cc(NS(=O)(=O)c2ccc(-c3ccccc3)cc2)ccc1O [A2040, biphenyl-4-sulfonic acid (4-hydroxy-3-methyl-phenyl)-amide]
IC50 (HIF-1α): 5 µM

Cc1cc(NS(=O)(=O)c2ccc(-c3ccccc3)cc2)ccc1O [A2041, biphenyl-4-sulfonic acid (4-hydrox-3-methyl-phenyl)-amide]
IC50 (HIF-1α): 10 µM

O=S(=O)(Nc1cc(Cl)c(O)c(Cl)c1)c1ccc(-c2ccccc2)cc1 [A2043, biphenyl-4-sulfonic acid (3,5-dichloro-4-hydroxy-phenyl)-amide]
IC50 (HIF-1α): 10 µM

O=S(=O)(Nc1cc(Cl)c(O)c(Cl)c1)c1ccc2ccccc2c1 [A2044, naphthalene-3-sulfonic acid (3,5-dichloro-4-hydroxy-phenyl)-amide]
IC50 (HIF-1α): 10 µM

O=S(=O)(NCCc1ccc(O)cc1)c1ccc(-c2ccccc2)cc1 [A2060, biphenyl-4-sulfonic acid [2-(4-hydroxy-phenyl)-ethyl]-amide]
IC50 (HIF-1α): 10 µM

O=S(=O)(NC1CCC(CCO)CC1)c1ccc2ccccc2c1 (stereo not drawn) [A2069, naphthalene-2-sulfonic acid [4-(2-hydroxy-ethyl)-cyclohenxyl]-amide]
IC50 (HIF-1α): 10 µM

C/C1=C\C[C@]2(C)C(=O)C(O)=C([C@H](C)CO)[C@H]2C/C=C(\C)[C@@H](O)CC/C(C)=C/CC1 [terpestacin, reference compound]
binding efficiency of UQCRB to biotinylated terpestacin (BT) after co-incubation (UQCRB): significantly decreased
